# Data published in the supplement of paper PMC10307832.
# Legend:
# Test in all cases: relative viability (nuclei count vs DMSO), 5 days (fraction); higher = more cells survive
# [1] = compound: CN1C=C(C2=CC=CC=C21)/C=C\3/C4=C(C=CC=N4)NC3=O + Nc1nc2[nH]cc(CCc3ccc(C(=O)N[C@@H](CCC(=O)O)C(=O)O)cc3)c2c(=O)[nH]1 [Pemetrexed] (partner 0.2 µM)
# How it was run: (§1)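 Lung cancer cell lines in 1536-well plates were dosed by pin tool the day after seeding, either with one drug alone or with a fixed anchor-drug dose plus five library-drug doses (not always all listed) in √10 steps. After 5 days, cells were fixed and their nuclei stained in one step (final 0.05% Triton X-100, 1% formaldehyde, 1 ug/ml Hoechst), then counted on 4× images. Relative viability is the nuclei count in treated wells divided by that in vehicle wells. Values are medians of duplicate plates.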
# Trametinib + Bortezomib = compound: CC(=O)Nc1cccc(-n2c(=O)n(C3CC3)c(=O)c3c(Nc4ccc(I)cc4F)n(C)c(=O)c(C)c32)c1 [Trametinib] + CC(C)C[C@H](NC(=O)[C@H](Cc1ccccc1)NC(=O)c1cnccn1)B(O)O [Bortezomib] (partner 0.002 µM)
# How it was run: as §1
# Trametinib + Foretinib = compound: CC(=O)Nc1cccc(-n2c(=O)n(C3CC3)c(=O)c3c(Nc4ccc(I)cc4F)n(C)c(=O)c(C)c32)c1 [Trametinib] + COc1cc2c(Oc3ccc(NC(=O)C4(C(=O)Nc5ccc(F)cc5)CC4)cc3F)ccnc2cc1OCCCN1CCOCC1 [Foretinib] (partner 0.25 µM)
# How it was run: as §1
# Trametinib + Pemetrexed = compound: CC(=O)Nc1cccc(-n2c(=O)n(C3CC3)c(=O)c3c(Nc4ccc(I)cc4F)n(C)c(=O)c(C)c32)c1 [Trametinib] + Nc1nc2[nH]cc(CCc3ccc(C(=O)N[C@@H](CCC(=O)O)C(=O)O)cc3)c2c(=O)[nH]1 [Pemetrexed] (partner 0.2 µM)
# How it was run: as §1
Cell Line,relative viability ([1]; first compound 0.02 µM),relative viability ([1]; first compound 0.06325 µM),relative viability ([1]; first compound 0.2 µM),relative viability ([1]; first compound 0.6325 µM),relative viability ([1]; first compound 2 µM),relative viability (Trametinib + Bortezomib; first compound 0.0025 µM),relative viability (Trametinib + Bortezomib; first compound 0.007906 µM),relative viability (Trametinib + Bortezomib; first compound 0.025 µM),relative viability (Trametinib + Bortezomib; first compound 0.07906 µM),relative viability (Trametinib + Bortezomib; first compound 0.25 µM),relative viability (Trametinib + Foretinib; first compound 0.0025 µM),relative viability (Trametinib + Foretinib; first compound 0.007906 µM),relative viability (Trametinib + Foretinib; first compound 0.025 µM),relative viability (Trametinib + Foretinib; first compound 0.07906 µM),relative viability (Trametinib + Foretinib; first compound 0.25 µM),relative viability (Trametinib + Pemetrexed; first compound 0.0025 µM),relative viability (Trametinib + Pemetrexed; first compound 0.007906 µM),relative viability (Trametinib + Pemetrexed; first compound 0.025 µM),relative viability (Trametinib + Pemetrexed; first compound 0.07906 µM),relative viability (Trametinib + Pemetrexed; first compound 0.25 µM)
201T,0.31,0.317,0.365,0.342,0.358,1.08,1.01,0.942,1.05,0.801,1.05,1,1.02,0.815,0.715,0.394,0.362,0.338,0.341,0.371
A549,–,–,–,–,–,–,–,–,–,–,0.817,0.594,0.534,0.178,0.0763,–,–,–,–,–
A-427,0.981,0.973,–,0.94,0.983,1.1,1.05,0.735,0.763,0.601,1,0.747,0.619,0.517,0.448,1.08,1.1,0.977,0.839,0.679
ABC-1,–,–,–,–,–,0.301,0.299,0.255,0.251,0.235,1.04,0.834,0.715,0.891,0.685,–,–,–,–,–
BEN,0.715,0.847,0.613,0.731,0.734,0.76,0.725,–,0.531,0.657,0.757,0.727,0.302,0.408,0.499,0.706,0.752,0.511,0.45,0.646
CAL-12T,1.1,1.13,1.21,1.34,1.34,0.784,0.734,0.645,1.43,0.454,0.969,0.893,0.716,0.499,0.489,1.21,1.15,0.753,0.483,0.589
COR-L23,0.197,0.189,0.209,0.18,0.19,0.982,1,1.02,0.935,0.309,1.05,1.04,0.953,0.777,0.45,0.192,0.211,0.23,0.214,0.209
COR-L 105,1.07,0.969,1.12,1.28,1.3,0.748,0.612,0.389,0.315,0.335,0.815,1.19,0.489,0.552,0.374,0.984,0.825,0.69,0.488,0.42
Calu-6,–,–,–,–,–,1.08,0.813,0.376,0.236,0.224,0.835,0.503,0.418,0.12,0.131,–,–,–,–,–
ChaGo-K-1,0.252,0.255,0.241,0.269,0.245,1.12,0.871,1.05,0.713,0.476,0.805,0.908,0.839,0.839,0.687,0.281,0.253,0.261,0.259,0.248
EBC-1,–,–,–,–,–,0.631,0.544,0.427,0.376,0.337,0.101,0.0972,0.0957,0.0946,0.0905,–,–,–,–,–
EKVX,0.371,–,–,0.354,0.352,0.797,0.628,0.6,0.373,0.331,0.809,0.724,0.332,0.379,0.838,0.345,0.381,0.402,0.312,0.358
EMC-BAC-2,0.407,0.438,0.442,0.465,0.421,1.05,0.99,0.865,1,0.859,0.917,0.885,0.782,0.907,0.68,0.547,0.489,0.572,0.544,0.56
EPLC-272H,0.3,0.274,0.298,–,0.369,1.02,0.841,0.516,0.737,0.157,0.476,0.384,0.26,0.237,0.14,0.318,0.328,0.287,0.294,0.27
H3255,0.578,0.549,0.493,0.615,0.54,0.814,0.769,0.597,0.42,0.344,0.794,0.857,0.501,0.728,0.509,0.538,0.506,0.514,0.473,0.463
HARA,0.24,0.24,–,0.263,0.216,1.09,1.06,0.983,0.745,0.0924,0.834,0.555,0.58,0.515,0.232,0.224,0.226,0.254,0.212,0.219
HCC-15,0.228,0.211,0.223,0.217,0.211,0.946,0.62,0.731,0.492,0.203,0.75,0.559,0.343,0.244,0.201,0.21,0.221,0.227,0.186,0.221
HCC-44,0.58,0.613,0.664,0.648,0.636,0.926,0.905,0.946,0.816,0.585,–,–,–,–,–,0.647,0.702,0.734,0.763,0.772
HCC-78,0.907,0.945,0.951,0.903,0.913,0.399,0.404,0.4,0.395,0.332,0.515,0.392,0.513,0.443,0.403,0.843,0.888,0.893,0.934,0.924
HCC-366,0.148,0.142,0.196,0.155,0.133,0.962,0.897,0.902,0.645,0.172,0.875,0.765,0.768,0.49,0.228,0.24,0.213,0.236,0.188,0.169

Cell Line,relative viability ([1]; first compound 0.02 µM),relative viability ([1]; first compound 0.06325 µM),relative viability ([1]; first compound 0.2 µM),relative viability ([1]; first compound 0.6325 µM),relative viability ([1]; first compound 2 µM),relative viability (Trametinib + Bortezomib; first compound 0.0025 µM),relative viability (Trametinib + Bortezomib; first compound 0.007906 µM),relative viability (Trametinib + Bortezomib; first compound 0.025 µM),relative viability (Trametinib + Bortezomib; first compound 0.07906 µM),relative viability (Trametinib + Bortezomib; first compound 0.25 µM),relative viability (Trametinib + Foretinib; first compound 0.0025 µM),relative viability (Trametinib + Foretinib; first compound 0.007906 µM),relative viability (Trametinib + Foretinib; first compound 0.025 µM),relative viability (Trametinib + Foretinib; first compound 0.07906 µM),relative viability (Trametinib + Foretinib; first compound 0.25 µM),relative viability (Trametinib + Pemetrexed; first compound 0.0025 µM),relative viability (Trametinib + Pemetrexed; first compound 0.007906 µM),relative viability (Trametinib + Pemetrexed; first compound 0.025 µM),relative viability (Trametinib + Pemetrexed; first compound 0.07906 µM),relative viability (Trametinib + Pemetrexed; first compound 0.25 µM)
HCC-827,0.227,0.28,–,0.247,0.258,0.943,0.989,0.974,0.92,0.748,1.01,0.95,0.787,0.556,0.425,0.271,0.271,0.263,0.214,0.235
HOP-62,0.285,0.299,–,0.357,0.366,0.776,0.956,0.425,0.439,0.186,1.04,0.948,0.623,0.341,0.252,0.407,0.31,0.345,0.308,0.183
IA-LM,–,–,–,–,–,0.621,0.392,0.174,0.178,0.111,1.09,0.687,0.351,0.169,0.0888,–,–,–,–,–
LC-2-ad,0.287,0.255,0.26,0.271,0.285,0.999,0.898,0.928,0.713,0.443,0.792,0.726,0.57,0.477,0.409,0.271,0.259,0.294,0.274,0.282
LK-2,0.192,0.241,0.199,0.309,0.297,–,–,–,–,–,1.07,1.19,1.11,1.2,0.859,0.226,0.305,0.213,0.184,0.102
NCI-H358,0.172,0.15,0.167,0.172,0.164,–,–,–,–,–,0.49,0.302,0.264,0.18,0.166,0.156,0.143,0.164,0.16,0.152
NCI-H522,0.743,0.775,0.878,1.1,0.998,–,–,–,–,–,–,–,–,–,–,1.04,1.07,0.75,0.742,0.752
NCI-H727,–,–,–,–,–,0.663,0.422,0.272,0.257,0.277,0.455,0.269,0.359,0.32,0.238,–,–,–,–,–
NCI-H1299,–,–,–,–,–,1.04,0.992,0.971,0.955,0.739,1.07,1.2,1.01,0.794,0.481,–,–,–,–,–
NCI-H1395,0.82,0.739,0.707,0.845,0.815,–,–,–,–,–,0.993,0.914,0.852,0.919,0.708,0.952,0.837,0.708,0.609,0.466
NCI-H1623,–,–,–,–,–,–,–,–,–,–,0.782,0.591,0.532,0.437,0.727,–,–,–,–,–
NCI-H1648,0.729,0.777,0.922,0.691,0.739,–,–,–,–,–,–,–,–,–,–,0.676,0.69,0.883,0.752,0.559
NCI-H1703,–,–,–,–,–,0.294,0.263,0.372,0.369,0.287,0.371,0.315,0.357,0.368,0.323,–,–,–,–,–
NCI-H1792,1.06,0.813,0.496,0.74,0.825,0.971,0.85,0.647,0.597,0.455,–,–,–,–,–,0.751,0.645,0.363,0.328,0.154
NCI-H1793,0.876,1.11,0.73,0.785,0.988,–,–,–,–,–,0.661,0.349,0.393,0.256,0.237,0.617,0.481,0.315,0.365,0.338
NCI-H1944,0.549,0.558,–,0.617,0.652,–,–,–,–,–,0.811,0.634,0.572,0.461,0.341,0.514,0.429,0.39,0.318,0.29
NCI-H2170,0.261,0.254,0.292,0.264,0.257,–,–,–,–,–,0.973,0.539,0.968,0.963,0.87,0.281,0.267,–,0.271,0.237
NCI-H2342,0.704,0.747,0.736,0.756,0.767,–,–,–,–,–,1.05,0.911,–,0.908,0.997,0.688,0.727,0.459,0.689,0.685
SK-MES-1,0.846,0.856,0.687,0.954,0.852,–,–,–,–,–,0.913,0.476,0.638,0.566,0.347,0.916,0.736,0.664,0.428,0.407
SW 900,0.474,–,–,0.512,0.486,–,–,–,–,–,0.79,0.669,0.708,0.698,0.499,0.439,0.471,0.487,0.459,0.224
